What was measured:
[1] = molecular target: T1, Beta-1,4-galactosyltransferase 1 (Homo sapiens, UniProt P15291); experiment: Inhibitory constant against human Beta-1,4-galactosyltransferase I; N.I. is inactive
T1 sequence (P15291 whole entry): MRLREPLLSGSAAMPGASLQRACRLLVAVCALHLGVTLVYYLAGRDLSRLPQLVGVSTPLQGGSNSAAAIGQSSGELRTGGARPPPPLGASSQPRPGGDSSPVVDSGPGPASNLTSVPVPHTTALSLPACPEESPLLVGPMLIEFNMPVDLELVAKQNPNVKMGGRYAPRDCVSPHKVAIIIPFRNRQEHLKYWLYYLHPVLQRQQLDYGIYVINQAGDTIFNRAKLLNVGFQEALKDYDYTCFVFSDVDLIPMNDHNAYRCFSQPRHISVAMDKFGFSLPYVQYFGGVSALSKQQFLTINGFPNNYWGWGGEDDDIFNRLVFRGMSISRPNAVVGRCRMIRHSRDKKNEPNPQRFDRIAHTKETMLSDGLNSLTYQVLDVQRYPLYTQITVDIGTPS

[2] = molecular target: T1, Beta-1,4-galactosyltransferase 1; experiment: Inhibitory constant against human recombinant Beta-1,4-galactosyltransferase I; N.I. is inactive

Ki [1] | Ki [2] | SMILES
Not Active | – | O=c1ccn([C@@H]2O[C@H](COP(=O)(O)OP(=O)(O)O[C@H]3O[C@@H](CNCCCCCCOCc4ccc5ccccc5c4)[C@H](O)[C@H](O)[C@@H]3O)[C@@H](O)[C@H]2O)c(=O)[nH]1
– | Not Active | O=c1ccn([C@@H]2O[C@H](COP(=O)(O)OP(=O)(O)O[C@H]3O[C@@H](CNCc4cccc5ccccc45)[C@H](O)[C@H](O)[C@@H]3O)[C@@H](O)[C@H]2O)c(=O)[nH]1

Reference: ChEMBL document CHEMBL1141090, “Rational design, synthesis, and characterization of novel inhibitors for human beta1,4-galactosyltransferase” (J Med Chem, 2005)
